In US8242113B2, “Oxazolidinone derivatives with cyclic amidoxime or cyclic amidrazone pharmaceutical compositions thereof” (Legochem Biosciences, Inc., priority 2008, dated 2012):
Values after ≈ are worked out from the molar mass of the structure shown.

Tests used:
[1] = tested on: methicillin-resistant Staphylococcus aureus (MRSA); assay: In vitro antibacterial activity, broth microdilution (MIC90); conditions: read-out: Antibacterial activity MIC90, MRSA
Source text: (§1) MIC90 measurement was made according to the broth microdilution method based on the CLSI document [Clinical and Laboratory Standards Institute Document.
(§2) The test compounds in DMSO solution were further diluted 20-fold with sterile distilled water.

[2] = tested on: linezolid- and vancomycin-resistant Enterococcus faecalis (LVRE); assay: as above; conditions: read-out: Antibacterial activity MIC90, LVRE
Source text: as §1, §2

| MIC90 [1] | MIC [2] | Structure (SMILES) |
| --- | --- | --- |
| 4 µg/mL (≈ 10.5 µM) | 64 µg/mL (≈ 169 µM) | CC(=O)NC[C@H]1CN(c2ccc(N3C=NN(CCO)CC3)c(F)c2)C(=O)O1 [Compound 27] |
| 8 µg/mL (≈ 20.5 µM) | > 64 µg/mL | O=CN1CCN(c2ccc(N3C[C@H](COc4ccon4)OC3=O)cc2F)C=N1 [Compound 79] |
| 128 µg/mL (≈ 274 µM) | > 128 µg/mL | CC(=O)NC[C@H]1CN(c2ccc(N3C=NN(C(=O)N(CCO)CCO)CC3)c(F)c2)C(=O)O1 [Compound 16] |
| 8 µg/mL (≈ 20.4 µM) | 64 µg/mL (≈ 163 µM) | CCNC(=O)NC[C@H]1CN(c2ccc(N3C=NN(C=O)CC3)c(F)c2)C(=O)O1 [Compound 44] |
| 1 µg/mL (≈ 2.43 µM) | 4 µg/mL (≈ 9.72 µM) | COC(=S)NC[C@H]1CN(c2ccc(N3C=NN(CCO)CC3)c(F)c2)C(=O)O1 [Compound 70] |
| 2 µg/mL (≈ 4.95 µM) | 16 µg/mL (≈ 39.6 µM) | O=CN1CCN(c2ccc(N3C[C@H](CNc4nccs4)OC3=O)cc2F)C=N1 [Compound 80] |
| 0.5 µg/mL (≈ 1.22 µM) | 2 µg/mL (≈ 4.88 µM) | CC(=S)NC[C@H]1CN(c2ccc(N3C=NN(C(=O)CO)CC3)c(F)c2)C(=O)O1 [Compound 76] |
| 2 µg/mL (≈ 5.3 µM) | 32 µg/mL (≈ 84.8 µM) | CN1CCN(c2c(F)cc(N3C[C@H](Cn4ccnn4)OC3=O)cc2F)C=N1 [Compound 104] |
| 0.5 µg/mL (≈ 1.19 µM) | 4 µg/mL (≈ 9.49 µM) | COC(=S)NC[C@H]1CN(c2ccc(N3C=NN(CC4CC4)CC3)c(F)c2)C(=O)O1 [Compound 67] |
| 2 µg/mL (≈ 4.66 µM) | 8 µg/mL (≈ 18.6 µM) | O=C(NC[C@H]1CN(c2ccc(N3C=NN(C(=O)CO)CC3)c(F)c2)C(=O)O1)C(F)F [Compound 47] |
| 2 µg/mL (≈ 4.52 µM) | 4 µg/mL (≈ 9.04 µM) | CC(=O)NC[C@H]1CN(c2ccc(N3C=NN(S(=O)(=O)N(C)C)CC3)c(F)c2)C(=O)O1 [Compound 21] |
| 0.5 µg/mL (≈ 1.39 µM) | 8 µg/mL (≈ 22.2 µM) | CC(=O)NC[C@H]1CN(c2ccc(N3C=NN(C#N)CC3)c(F)c2)C(=O)O1 [Compound 9] |
| 2 µg/mL (≈ 4.8 µM) | 16 µg/mL (≈ 38.4 µM) | O=CN1CCN(c2ccc(N3C[C@H](CNC(=O)c4ccno4)OC3=O)cc2F)C=N1 [Compound 52] |
| 1 µg/mL (≈ 2.75 µM) | 16 µg/mL (≈ 44 µM) | COC(=S)NC[C@H]1CN(c2ccc(N3C=NN(C)CC3)cc2)C(=O)O1 [Compound 98] |
| 0.25 µg/mL (≈ 0.679 µM) | 2 µg/mL (≈ 5.43 µM) | COC(=S)NC[C@H]1CN(c2ccc(N3C=NOCC3)c(F)c2)C(=O)O1 [Compound 57] |
| 2 µg/mL (≈ 5.29 µM) | 8 µg/mL (≈ 21.1 µM) | CC(=O)NC[C@H]1CN(c2ccc(N3C=NN(C(N)=O)CC3)c(F)c2)C(=O)O1 [Compound 14] |
| 2 µg/mL (≈ 4.56 µM) | 8 µg/mL (≈ 18.2 µM) | CC(=O)NC[C@H]1CN(c2ccc(N3C=NN(C(=S)NCCO)CC3)c(F)c2)C(=O)O1 [Compound 33] |
| 1 µg/mL (≈ 3.1 µM) | 64 µg/mL (≈ 199 µM) | O=CN1CCN(c2ccc(N3C[C@H](CO)OC3=O)cc2F)C=N1 [Compound 92] |
| 8 µg/mL (≈ 20.6 µM) | 32 µg/mL (≈ 82.4 µM) | N#CCC(=O)NC[C@H]1CN(c2ccc(N3C=NN(C=O)CC3)c(F)c2)C(=O)O1 [Compound 42] |
| 0.0625 µg/mL (≈ 0.165 µM) | 2 µg/mL (≈ 5.27 µM) | CC(=S)NC[C@H]1CN(c2ccc(N3C=NN(C=O)CC3)c(F)c2)C(=O)O1 [Compound 73] |
| 1 µg/mL (≈ 2.36 µM) | 8 µg/mL (≈ 18.9 µM) | CCOC(=S)N1CCN(c2ccc(N3C[C@H](CNC(C)=O)OC3=O)cc2F)C=N1 [Compound 31] |
| 0.25 µg/mL (≈ 0.639 µM) | 16 µg/mL (≈ 40.9 µM) | O=CN1CCN(c2c(F)cc(N3C[C@H](Cn4ccnn4)OC3=O)cc2F)C=N1 [Compound 103] |
| 0.5 µg/mL (≈ 1.23 µM) | 16 µg/mL (≈ 39.4 µM) | O=CN1CCN(c2c(F)cc(N3C[C@H](CNc4ccon4)OC3=O)cc2F)C=N1 [Compound 105] |
| 0.5 µg/mL (≈ 1.2 µM) | 8 µg/mL (≈ 19.1 µM) | O=C(CO)N1CCN(c2ccc(N3C[C@H](CNc4ccon4)OC3=O)cc2F)C=N1 [Compound 87] |

Further lines, the compound ahead of its results:

| Structure (SMILES) | MIC90 [1] | MIC [2] |
| --- | --- | --- |
| CC(=S)NC[C@H]1CN(c2ccc(N3C=NNCC3)c(F)c2)C(=O)O1 [Compound 74] | 0.25 µg/mL (≈ 0.711 µM) | 2 µg/mL (≈ 5.69 µM) |
| COC(=S)NC[C@H]1CN(c2ccc(N3C=NN(CC#N)CC3)c(F)c2)C(=O)O1 [Compound 65] | 0.5 µg/mL (≈ 1.23 µM) | 4 µg/mL (≈ 9.84 µM) |
| CN1CCN(c2c(F)cc(N3C[C@H](CNc4ccon4)OC3=O)cc2F)C=N1 [Compound 106] | 0.5 µg/mL (≈ 1.27 µM) | 16 µg/mL (≈ 40.8 µM) |
| O=CN1CCN(c2ccc(N3C[C@H](CNc4ccon4)OC3=O)cc2)C=N1 [Compound 100] | 0.5 µg/mL (≈ 1.35 µM) | 32 µg/mL (≈ 86.4 µM) |
| CC(=O)OCC(=O)N1CCN(c2ccc(N3C[C@H](CNc4ccon4)OC3=O)cc2F)C=N1 [Compound 88] | 0.5 µg/mL (≈ 1.09 µM) | 8 µg/mL (≈ 17.4 µM) |
| C#CCN1CCN(c2ccc(N3C[C@H](CNC(=S)OC)OC3=O)cc2F)C=N1 [Compound 63] | 0.5 µg/mL (≈ 1.23 µM) | 4 µg/mL (≈ 9.87 µM) |
| CCN1CCN(c2ccc(N3C[C@H](CNC(C)=O)OC3=O)cc2F)C=N1 [Compound 6] | 2 µg/mL (≈ 5.5 µM) | 8 µg/mL (≈ 22 µM) |
| C#CCN1CCN(c2ccc(N3C[C@H](Cn4ccnn4)OC3=O)cc2F)C=N1 [Compound 84] | 0.5 µg/mL (≈ 1.3 µM) | 16 µg/mL (≈ 41.7 µM) |
| O=CN1CCN(c2ccc(N3C[C@H](Cn4ccnn4)OC3=O)cc2F)C=N1 [Compound 81] | 1 µg/mL (≈ 2.68 µM) | 16 µg/mL (≈ 42.9 µM) |
| CC(=O)NC[C@H]1CN(c2ccc(N3C=NNCC3)c(F)c2)C(=O)O1 [Compound 2] | 2 µg/mL (≈ 5.96 µM) | 16 µg/mL (≈ 47.7 µM) |
| CC(=O)NC[C@H]1CN(c2ccc(N3C=NN(C(C)=O)CC3)c(F)c2)C(=O)O1 [Compound 10] | 4 µg/mL (≈ 10.6 µM) | 32 µg/mL (≈ 84.8 µM) |
| C#CCN1CCN(c2ccc(N3C[C@H](CNC(C)=O)OC3=O)cc2F)C=N1 [Compound 5] | 1 µg/mL (≈ 2.68 µM) | 8 µg/mL (≈ 21.4 µM) |
| CCOC(=O)N1CCN(c2ccc(N3C[C@H](CNC(C)=O)OC3=O)cc2F)C=N1 [Compound 35] | 2 µg/mL (≈ 4.91 µM) | 8 µg/mL (≈ 19.6 µM) |
| C=C(Cl)CN1CCN(c2ccc(N3C[C@H](CNC(C)=O)OC3=O)cc2F)C=N1 [Compound 40] | 2 µg/mL (≈ 4.88 µM) | 8 µg/mL (≈ 19.5 µM) |
| CCN1CCN(c2ccc(N3C[C@H](CNC(=S)OC)OC3=O)cc2F)C=N1 [Compound 61] | 0.5 µg/mL (≈ 1.26 µM) | 4 µg/mL (≈ 10.1 µM) |
| C=C(C)CN1CCN(c2ccc(N3C[C@H](CNC(C)=O)OC3=O)cc2F)C=N1 [Compound 39] | 2 µg/mL (≈ 5.14 µM) | 8 µg/mL (≈ 20.5 µM) |
| CCOC(=O)CN1CCN(c2ccc(N3C[C@H](CNC(=S)OC)OC3=O)cc2F)C=N1 [Compound 69] | 2 µg/mL (≈ 4.41 µM) | 8 µg/mL (≈ 17.6 µM) |
| CC(=O)CN1CCN(c2ccc(N3C[C@H](CNC(C)=O)OC3=O)cc2F)C=N1 [Compound 37] | 2 µg/mL (≈ 5.11 µM) | 8 µg/mL (≈ 20.4 µM) |
| COC(=S)NC[C@H]1CN(c2ccc(N3C=NN(C4CCC4)CC3)c(F)c2)C(=O)O1 [Compound 68] | 0.25 µg/mL (≈ 0.593 µM) | 2 µg/mL (≈ 4.74 µM) |
| CC(=O)NC[C@H]1CN(c2ccc(N3C=NN(C(=O)C4CC4)CC3)c(F)c2)C(=O)O1 [Compound 13] | 4 µg/mL (≈ 9.92 µM) | 16 µg/mL (≈ 39.7 µM) |
| CNC(=S)N1CCN(c2ccc(N3C[C@H](CNC(C)=O)OC3=O)cc2F)C=N1 [Compound 19] | 0.5 µg/mL (≈ 1.22 µM) | 4 µg/mL (≈ 9.79 µM) |
| COC(=S)NC[C@H]1CN(c2ccc(N3C=NN(C)CC3)c(F)c2)C(=O)O1 [Compound 60] | 0.25 µg/mL (≈ 0.655 µM) | 2 µg/mL (≈ 5.24 µM) |
| C=C(Cl)CN1CCN(c2ccc(N3C[C@H](CNC(=S)OC)OC3=O)cc2F)C=N1 [Compound 66] | 0.5 µg/mL (≈ 1.13 µM) | 4 µg/mL (≈ 9.05 µM) |
| CC(=S)NC[C@H]1CN(c2ccc(N3C=NN(CC#N)CC3)c(F)c2)C(=O)O1 [Compound 75] | 0.25 µg/mL (≈ 0.64 µM) | 2 µg/mL (≈ 5.12 µM) |
| CCOC(=O)CN1CCN(c2ccc(N3C[C@H](CNC(C)=O)OC3=O)cc2F)C=N1 [Compound 24] | 2 µg/mL (≈ 4.75 µM) | 16 µg/mL (≈ 38 µM) |
